Tests used:
[1] = molecular target: T1, mGluR5 receptor (Sus scrofa, UniProt I3LUI7); assay: Affinity for the mGluR5 receptor ([3H]-MPEP binding, pig brain homogenate); conditions: 10 μM compound, 15 nM [3H]-MPEP
T1 construct: 450 μg of protein from brain homogenate is incubated; from tissue; host or cells: pig brain hemispheres without medulla, cerebellum and pons
Experimental: III. Method for Determining Affinity for the mGluR5 Receptor
Pig brain homogenate is produced by homogenisation (Polytron Pt 3000, Kinematica AG, 10,000 rpm (revolutions per minute) for 90 seconds) of pig brain hemispheres without medulla, cerebellum and pons in a buffer of pH 8.0 (30 mM Hepes, Sigma, order number H3375+1 tablet Complete Roche Diagnostics, order number 1836145 made up to 100 ml) in a ratio of 1:20 (brain weight/volume) and differential centrifugation at 900 g and 40,000 g. 450 μg of protein from brain homogenate is incubated in each case in 250 μl incubation batches in 96-well microtitre plates with 15 nM ^3[H]-MPEP (Tocris, order number R1212) and the compounds to be investigated (in each case 10 μM in the test) in the above-stated buffer at room temperature for 60 minutes.
The batches are then filtered with the assistance of a Brandel Cell Harvester (Brandel, Grade Robotic 9600) on Unifilter plates with glass filter mats (Perkin Elmer, order number 6005177) and then rewashed 3 times with buffer of the above-stated composition using 250 μl per sample. The filter plates are then dried for 60 minutes at 55° C. Then 30 μl of Ultima Gold scintillating material (Packard BioScience, order number 6013159) is added per well and after 3 hours the samples are measured using the B counter ([…], Perkin Elmer). Nonspecific binding is determined by the addition of 10 μM 2-methyl-6-(phenylethynyl)-pyridine (Tocris, order number 1212).

[2] = molecular target: T2, NA transporter (Rattus norvegicus, UniProt Q63380); assay: Noradrenalin uptake inhibition in rat brain synaptosomes (hypothalamus); type: biochemical
T2 construct: from tissue; host or cells: rat hypothalamus synaptosomes (P2 fraction)
T2 sequence (Q63380 1-617): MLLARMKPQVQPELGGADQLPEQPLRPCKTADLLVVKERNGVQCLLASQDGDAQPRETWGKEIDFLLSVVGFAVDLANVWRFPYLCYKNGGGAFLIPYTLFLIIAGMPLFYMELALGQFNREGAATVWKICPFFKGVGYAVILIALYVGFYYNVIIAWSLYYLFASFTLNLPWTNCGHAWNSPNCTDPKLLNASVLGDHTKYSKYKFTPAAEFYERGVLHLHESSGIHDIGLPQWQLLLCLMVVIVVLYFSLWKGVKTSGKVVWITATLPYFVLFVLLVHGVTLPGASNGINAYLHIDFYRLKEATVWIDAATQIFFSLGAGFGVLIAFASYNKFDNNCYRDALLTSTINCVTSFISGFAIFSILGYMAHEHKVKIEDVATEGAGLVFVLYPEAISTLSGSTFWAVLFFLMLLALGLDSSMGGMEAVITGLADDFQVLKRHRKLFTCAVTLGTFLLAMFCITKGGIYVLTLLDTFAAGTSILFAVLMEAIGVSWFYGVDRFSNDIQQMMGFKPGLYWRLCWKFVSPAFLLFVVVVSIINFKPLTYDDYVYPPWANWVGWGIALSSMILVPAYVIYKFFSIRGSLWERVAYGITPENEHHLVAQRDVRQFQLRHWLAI
Description: (§1) I. Method for Determining Noradrenalin and 5-HT Uptake Inhibition:
(§2) Synaptosomes from rat brain regions are freshly isolated for in vitro studies, as described in the publication “The isolation of nerve endings from brain” by E. G. Gray and V. P. Whittaker, J. Anatomy 96, pages 79-88, 1962. The corresponding literature description is hereby introduced as a reference and is deemed to be part of the disclosure.
(§3) The tissue (hypothalamus for the determination of noradrenalin uptake inhibition and medulla and pons for the determination of 5-HT uptake inhibition) is homogenised in ice-cooled 0.32 M sucrose (100 mg of tissue/1 mL) in a glass homogeniser with Teflon pestle using five complete up and down strokes at 840 revolutions/minute.
(§4) The homogenate is centrifuged at 4° C. for 10 minutes at 1000 g. After subsequent centrifugation at 17000 g for 55 minutes, the synaptosomes (P2 fraction) are obtained, which are resuspended in 0.32 M […] (0.5 mL/100 mg of original weight).
(§5) The particular uptake is measured in a 96-well microtitre plate. The volume is 250 μl and the incubation proceeds at room temperature (approx. 20-25° C.) under an O2 atmosphere.
(§6) The incubation time is 7.5 minutes for [^3H]-NA and 5 minutes for [^3H]-5-HT.
(§7) The 96 samples are then filtered through a Unifilter GF/B microtitre plate (Packard) and washed with 200 mL of incubated buffer using a “Brabdel MPXRI-96T Cell-Harvester”. The Unifilter GF/B plate is dried for 1 hour at 55° C. The plate is then sealed with a Back seal (Packard) and 35 μl of scintillation fluid are added per well (Ultima Gold, Packard). After sealing with a top seal (Packard) and establishing an equilibrium (around 5 hours), radioactivity is determined in a “Trilux 1450 Microbeta” (Wallac).
(§8) The quantity of protein used in the above determination corresponds to the values known from the literature, as for example described in “Protein measurement with the folin phenol reagent”, Lowry et al., J. Biol. Chem., 193, 265-275, 1951.
(§9) A detailed description of the method may additionally be found in the literature, for example in M. Ch. Frink, H.-H. Hennies, W. Engelberger, M. Haurand and B. Wilffert (1996) Arzneim.-Forsch./Drug Res. 46 (III), 11, 1029-1036.
(§10) The corresponding literature descriptions are hereby introduced in each case as a reference and are deemed to be part of the present disclosure.
(§11) The following characteristics were determined for the NA or 5-HT transporter: […]

[3] = molecular target: T3, 5-HT transporter (Rattus norvegicus, UniProt P31652); assay: 5-HT uptake inhibition in rat brain synaptosomes (medulla and pons); type: biochemical
T3 construct: from tissue; host or cells: rat medulla and pons synaptosomes (P2 fraction)
T3 sequence (P31652 whole entry): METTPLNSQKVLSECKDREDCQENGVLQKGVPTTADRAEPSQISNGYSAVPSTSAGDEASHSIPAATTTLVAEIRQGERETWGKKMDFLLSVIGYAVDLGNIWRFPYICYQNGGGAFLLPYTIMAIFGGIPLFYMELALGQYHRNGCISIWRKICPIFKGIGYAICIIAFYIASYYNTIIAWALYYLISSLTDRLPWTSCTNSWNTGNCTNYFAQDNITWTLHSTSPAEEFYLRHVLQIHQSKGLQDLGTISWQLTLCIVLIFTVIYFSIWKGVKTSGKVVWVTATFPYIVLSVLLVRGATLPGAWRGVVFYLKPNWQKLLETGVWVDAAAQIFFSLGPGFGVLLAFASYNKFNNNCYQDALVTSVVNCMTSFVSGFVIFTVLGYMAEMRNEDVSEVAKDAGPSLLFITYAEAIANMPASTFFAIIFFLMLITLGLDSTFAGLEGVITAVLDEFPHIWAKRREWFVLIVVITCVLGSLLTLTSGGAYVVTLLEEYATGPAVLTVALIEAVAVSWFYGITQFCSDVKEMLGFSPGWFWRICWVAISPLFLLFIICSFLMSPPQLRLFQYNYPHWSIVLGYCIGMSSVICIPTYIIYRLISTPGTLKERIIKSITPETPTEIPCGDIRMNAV
Description: as §1, §2, §3, §4, §5, §6, §7, §8, §9, §10, §11

T1 sequence (I3LUI7 19-1212): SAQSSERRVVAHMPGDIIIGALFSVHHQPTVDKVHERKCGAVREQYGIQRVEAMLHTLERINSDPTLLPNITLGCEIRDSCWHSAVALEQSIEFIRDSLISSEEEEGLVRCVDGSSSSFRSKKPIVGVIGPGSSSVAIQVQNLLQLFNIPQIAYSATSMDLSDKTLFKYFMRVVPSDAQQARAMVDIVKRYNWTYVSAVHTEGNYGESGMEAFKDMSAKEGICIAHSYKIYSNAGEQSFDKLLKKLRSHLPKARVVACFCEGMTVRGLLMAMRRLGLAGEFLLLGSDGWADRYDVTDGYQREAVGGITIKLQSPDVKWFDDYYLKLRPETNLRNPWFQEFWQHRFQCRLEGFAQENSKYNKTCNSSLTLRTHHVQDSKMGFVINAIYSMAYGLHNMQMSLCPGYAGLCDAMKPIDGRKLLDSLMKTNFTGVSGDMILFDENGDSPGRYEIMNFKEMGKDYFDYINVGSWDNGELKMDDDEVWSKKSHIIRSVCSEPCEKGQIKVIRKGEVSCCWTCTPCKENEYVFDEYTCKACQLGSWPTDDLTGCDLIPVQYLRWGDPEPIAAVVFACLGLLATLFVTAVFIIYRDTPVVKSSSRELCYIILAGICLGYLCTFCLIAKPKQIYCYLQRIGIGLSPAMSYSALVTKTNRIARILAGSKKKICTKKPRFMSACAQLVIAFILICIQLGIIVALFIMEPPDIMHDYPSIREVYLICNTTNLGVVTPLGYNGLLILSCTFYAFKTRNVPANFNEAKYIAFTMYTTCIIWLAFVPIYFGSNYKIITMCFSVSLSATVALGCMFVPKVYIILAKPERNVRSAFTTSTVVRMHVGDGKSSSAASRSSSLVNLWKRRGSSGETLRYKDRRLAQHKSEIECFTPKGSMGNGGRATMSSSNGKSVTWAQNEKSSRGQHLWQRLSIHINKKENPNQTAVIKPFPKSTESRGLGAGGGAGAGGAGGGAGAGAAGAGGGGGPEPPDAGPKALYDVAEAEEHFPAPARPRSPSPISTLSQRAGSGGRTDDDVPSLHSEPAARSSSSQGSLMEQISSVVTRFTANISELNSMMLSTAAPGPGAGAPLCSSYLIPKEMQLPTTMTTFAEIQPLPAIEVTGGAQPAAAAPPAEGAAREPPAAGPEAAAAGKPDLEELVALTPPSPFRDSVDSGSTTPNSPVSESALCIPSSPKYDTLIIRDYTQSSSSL

| Compound | inhibition at 10 µM [1] | inhibition at 10 µM [2] | inhibition at 1 µM [3] |
| --- | --- | --- | --- |
| CC(C)(C)c1ccc(C(=O)Nc2ncc3c(n2)CCN(C(=O)c2csc(-c4ccccc4)n2)C3)cc1 [Example 29, 4-tert-butyl-N-[6-(2-phenyl-thiazole-4-carbonyl)-5,6,7,8-tetrahydro-pyrido[4,3-d]pyrimidin-2-yl]-benzamide] | 40.5% |  |  |
| COc1ccccc1C(=O)Nc1ncc2c(n1)CCN(C(=O)c1cc(-c3ccc(Cl)cc3)oc1C)C2 [Example 78, N-{6-[5-(4-chloro-phenyl)-2-methyl-furan-3-carbonyl]-5,6,7,8-tetrahydro-pyrido[4,3-d]pyrimidin-2-yl}-2-methoxy-benzamide] | 41.1% |  |  |
| CCOc1ccccc1C(=O)Nc1ncc2c(n1)CCN(S(=O)(=O)c1ccccc1C(=O)OC)C2 [Example 82, 2-[2-(2-ethoxy-benzoylamino)-7,8-dihydro-5H-pyrido[4,3-d]pyrimidine-6-sulfonyl]-benzoic acid methyl ester] | 36.3% | 32% |  |
| Cc1ccc(C(=O)Nc2ncc3c(n2)CCN(S(=O)(=O)c2cc(F)ccc2C)C3)cc1 [Example 107, N-[6-(5-fluoro-2-methyl-benzenesulfonyl)-5,6,7,8-tetrahydro-pyrido[4,3-d]pyrimidin-2-yl]-4-methyl-benzamide] | 38.2% | 39% | 36% |
| O=C(Nc1ncc2c(n1)CCN(C(=O)c1ccc(Cl)c(Cl)c1)C2)c1ccccc1F [Example 113, N-[6-(3,4-dichloro-benzoyl)-5,6,7,8-tetrahydro-pyrido[4,3-d]pyrimidin-2-yl]-2-fluoro-benzamide] | 31.3% | 67% | 45% |
| COc1cccc(C(=O)Nc2ncc3c(n2)CCN(S(=O)(=O)c2cc(Br)ccc2OC)C3)c1 [Example 129, N-[6-(5-bromo-2-methoxy-benzenesulfonyl)-5,6,7,8-tetrahydro-pyrido[4,3-d]pyrimidin-2-yl]-3-methoxy-benzamide] | 51.1% |  |  |
| O=C(Nc1ncc2c(n1)CCN(C(=O)CCC1CCCC1)C2)c1ccncc1 [Example 132, N-[6-(3-cyclopentyl-propionyl)-5,6,7,8-tetrahydro-pyrido[4,3-d]pyrimidin-2-yl]-isonicotinamide] | 58.1% |  |  |
| CC(C)C(NC(=O)OCC1c2ccccc2-c2ccccc21)C(=O)NC1CCc2nc(NC(=O)c3cccs3)ncc2C1 (stereo not drawn) [Example 139, (2-methyl-1-{2-[(thiophene-2-carbonyl)-amino]-5,6,7,8-tetrahydro-quinazolin-6-ylcarbamoyl}-propyl)-carbamic acid 9H-fluoren-9-ylmethyl ester] | 31% |  |  |
| Cc1ccc(S(=O)(=O)N2CCc3nc(NC(=O)c4cccc(F)c4)ncc3C2)cc1 [Example 143, 3-fluoro-N-[6-(toluene-4-sulfonyl)-5,6,7,8-tetrahydro-pyrido[4,3-d]pyrimidin-2-yl]-benzamide] | 37.2% | 53% |  |
| CCOc1ccccc1C(=O)Nc1ncc2c(n1)CCN(C(=O)c1sccc1Cl)C2 [Example 145, N-[6-(3-chloro-thiophene-2-carbonyl)-5,6,7,8-tetrahydro-pyrido[4,3-d]pyrimidin-2-yl]-2-ethoxy-benzamide] | 84.4% |  |  |
| CCCC(=O)Nc1ncc2c(n1)CCC(NS(=O)(=O)c1cccc(C)c1)C2 (stereo not drawn) [Example 146, N-[6-(toluene-3-sulfonylamino)-5,6,7,8-tetrahydro-quinazolin-2-yl]-butyramide] | 39.6% |  |  |
| O=C(Nc1ncc2c(n1)CCN(C(=O)c1ccc(F)cc1F)C2)c1ccc(Cl)cc1 [Example 152, 4-chloro-N-[6-(2,4-difluoro-benzoyl)-5,6,7,8-tetrahydro-pyrido[4,3-d]pyrimidin-2-yl]-benzamide] | 34% |  | 33% |
| Cc1ccc(C(=O)N2CCc3nc(NC(=O)c4cccc5ccccc45)ncc3C2)cc1F [Example 154, naphthalene-1-carboxylic acid [6-(3-fluoro-4-methyl-benzoyl)-5,6,7,8-tetrahydro-pyrido[4,3-d]pyrimidin-2-yl]-amide] | 30.7% | 50% |  |
| O=C(Nc1ncc2c(n1)CCN(C(=O)c1ccc(Cl)c(Cl)c1)C2)c1cccnc1 [Example 156, N-[6-(3,4-dichloro-benzoyl)-5,6,7,8-tetrahydro-pyrido[4,3-d]pyrimidin-2-yl]-nicotinamide] | 46% | 50% |  |
| CCCC(=O)Nc1ncc2c(n1)CCC(NC(=O)C=Cc1cccc(C(F)(F)F)c1)C2 (stereo not drawn) [Example 168, N-(2-butyrylamino-5,6,7,8-tetrahydro-quinazolin-6-yl)-3-(3-trifluoromethyl-phenyl)-acrylamide] | 33.5% |  | 46% |
| O=C(Cc1cccc2ccccc12)NC1CCc2nc(NC(=O)c3cccs3)ncc2C1 (stereo not drawn) [Example 177, thiophene-2-carboxylic acid [6-(2-naphthalen-1-yl-acetylamino)-5,6,7,8-tetrahydro-quinazolin-2-yl]-amide] | 42% |  | 39% |
| O=C(Nc1ncc2c(n1)CCN(S(=O)(=O)Cc1ccccc1)C2)c1ccc(F)cc1 [Example 178, 4-fluoro-N-(6-phenylmethanesulfonyl-5,6,7,8-tetrahydro-pyrido[4,3-d]pyrimidin-2-yl)-benzamide] | 45.3% |  |  |
| O=C(Nc1ncc2c(n1)CCC(NS(=O)(=O)c1cc(Cl)sc1Cl)C2)c1cccs1 (stereo not drawn) [Example 180, thiophene-2-carboxylic acid [6-(2,5-dichloro-thiophene-3-sulfonylamino)-5,6,7,8-tetrahydro-quinazolin-2-yl]-amide] | 86.7% | 34% |  |
| O=C(CCCCCNC(=O)OCc1ccccc1)NC1CCc2nc(NC(=O)c3ccc(F)cc3)ncc2C1 (stereo not drawn) [Example 181, {5-[2-(4-fluoro-benzoylamino)-5,6,7,8-tetrahydro-quinazolin-6-ylcarbamoyl]-pentyl}-carbamic acid benzyl ester] | 36.4% |  |  |
| O=C(Nc1ncc2c(n1)CCN(C(=O)c1ccc(OC(F)(F)F)cc1)C2)c1cc(Cl)cc(Cl)c1 [Example 192, 3,5-dichloro-N-[6-(4-trifluoromethoxy-benzoyl)-5,6,7,8-tetrahydro-pyrido[4,3-d]pyrimidin-2-yl]-benzamide] |  | 73% | 47% |
| CC(C)(C)OC(=O)N1CCC(C(=O)NC2CCc3nc(NC(=O)c4ccc(F)cc4)ncc3C2)CC1 (stereo not drawn) [Example 194, 4-[2-(4-fluoro-benzoylamino)-5,6,7,8-tetrahydro-quinazolin-6-ylcarbamoyl]-piperidine-1-carboxylic acid tert-butyl ester] | 45.6% |  |  |
| Cc1nc(C(F)(F)F)ccc1C(=O)NC1CCc2nc(NC(=O)c3ccc(F)cc3)ncc2C1 (stereo not drawn) [Example 197, N-[2-(4-fluoro-benzoylamino)-5,6,7,8-tetrahydro-quinazolin-6-yl]-2-methyl-6-trifluoromethyl-nicotinamide] | 32.1% |  |  |
| O=C(Nc1ncc2c(n1)CCC(NS(=O)(=O)c1ccc(Cl)s1)C2)c1ccc(F)cc1 (stereo not drawn) [Example 202, N-[6-(5-chloro-thiophene-2-sulfonylamino)-5,6,7,8-tetrahydro-quinazolin-2-yl]-4-fluoro-benzamide] | 33.1% |  |  |
